We go through five compounds from ChEMBL document CHEMBL5625263, “Discovery of a novel series of selective macrocyclic PKCTheta inhibitors” (Bioorg Med Chem Lett, 2024).

Each structure is given as a SMILES string. Values after ≈ are worked out from the molar mass of the structure shown. Bounds are passed on as bounds.

In series [1] the target is T1, Protein kinase C theta type (Homo sapiens, UniProt Q04759). In words: Inhibition of PKC theta (unknown origin) in presence of ATP at Km.
The target of series [2] is T1, Protein kinase C theta type. As to the kind of experiment: Inhibition of PKC theta (unknown origin) in presence of 1 mM ATP.
Series [3] addresses T2, Protein kinase C alpha type (Homo sapiens, UniProt P17252). As to the kind of experiment: Inhibition of PKC alpha (unknown origin) in presence of ATP at Km.
Series [4] has as its target T2, Protein kinase C alpha type. As to the kind of experiment: Inhibition of PKC alpha (unknown origin) in presence of 1 mM ATP.
For series [5], the target named is T1, Protein kinase C theta type. As to the kind of experiment: Inhibition of PKC theta in TCR-stimulated human PBMC assessed as inhibition of IL-2 release. It counts as cell-based.
Series [6] is described as follows: Metabolic stability in human hepatocytes assessed as intrinsic clearance measured per 10^6 cells. The following applies: read-out: CLH. It is filed as ADME, cell-based, Hepatocyte.
Series [7] is described as follows: Solubility of the compound. It counts as physicochemical.
A short description of series [8]: Apparent permeability of a compound in human Caco-2 cells. It counts as ADME, cell-based. In general terms: Caco-2 monolayers are a common model of the intestinal barrier.
A short description of series [9]: Efflux ratio of apparent permeability across basolateral to apical side over apical to basolateral side in human Caco-2 cells. It is filed as ADME, cell-based.
The nature of series [10]: Oral bioavailability in rat. It counts as ADME, organism-based. Particulars: in vivo.
Series [11] can be described thus: Clearance in rat. It is filed as ADME. Particulars: in vivo.
A short description of series [12]: Volume of distribution at steady state in rat. It is filed as ADME. The following applies: in vivo, read-out: Vdss.
Series [13] is described as follows: Selectivity ratio of inhibition of PKCdelta (unknown origin) to inhibition of PKC theta (unknown origin) at 1 mM ATP concentration.
Series [14] can be described thus: Selectivity ratio of inhibition of PKCeta (unknown origin) to inhibition of PKC theta (unknown origin) at 1 mM ATP concentration.
Series [15] in a line: Selectivity ratio of inhibition of PKCbeta1 (unknown origin) to inhibition of PKC theta (unknown origin) at 1 mM ATP concentration.
Series [16] can be described thus: Selectivity ratio of inhibition of AURB (unknown origin) to inhibition of PKC theta (unknown origin) at 1 mM ATP concentration.
Series [17] can be described thus: Selectivity ratio of inhibition of HGK (unknown origin) to inhibition of PKC theta (unknown origin) at 1 mM ATP concentration.
Series [18] in a line: Selectivity ratio of inhibition of GSK3beta (unknown origin) to inhibition of PKC theta (unknown origin) at 1 mM ATP concentration.
Series [19] can be described thus: Selectivity ratio of inhibition of PKACalpha (unknown origin) to inhibition of PKC theta (unknown origin) at 1 mM ATP concentration.
A short description of series [20]: Selectivity ratio of inhibition of MSK1 (unknown origin) to inhibition of PKC theta (unknown origin) at 1 mM ATP concentration.
Series [21] in a line: Selectivity ratio of inhibition of RSK3 (unknown origin) to inhibition of PKC theta (unknown origin) at 1 mM ATP concentration.
Series [22] in a line: Selectivity ratio of inhibition of PI3K-C2beta (unknown origin) to inhibition of PKC theta (unknown origin) at 1 mM ATP concentration.
A short description of series [23]: Selectivity ratio of inhibition of CLK1 (unknown origin) to inhibition of PKC theta (unknown origin) at 1 mM ATP concentration.
Series [24] is described as follows: Selectivity ratio of inhibition of FLT3 (unknown origin) to inhibition of PKC theta (unknown origin) at 1 mM ATP concentration.
Series [25] in a line: Selectivity ratio of inhibition of TRKA (unknown origin) to inhibition of PKC theta (unknown origin) at 1 mM ATP concentration.
The target in series [26] is Voltage-gated inwardly rectifying potassium channel KCNH2 (Homo sapiens, UniProt Q12809). In words: Inhibition of hERG. It counts as toxicity.
A short description of series [27]: Half life in rat. It counts as ADME. The following applies: in vivo.

T1 sequence (Q04759 whole entry): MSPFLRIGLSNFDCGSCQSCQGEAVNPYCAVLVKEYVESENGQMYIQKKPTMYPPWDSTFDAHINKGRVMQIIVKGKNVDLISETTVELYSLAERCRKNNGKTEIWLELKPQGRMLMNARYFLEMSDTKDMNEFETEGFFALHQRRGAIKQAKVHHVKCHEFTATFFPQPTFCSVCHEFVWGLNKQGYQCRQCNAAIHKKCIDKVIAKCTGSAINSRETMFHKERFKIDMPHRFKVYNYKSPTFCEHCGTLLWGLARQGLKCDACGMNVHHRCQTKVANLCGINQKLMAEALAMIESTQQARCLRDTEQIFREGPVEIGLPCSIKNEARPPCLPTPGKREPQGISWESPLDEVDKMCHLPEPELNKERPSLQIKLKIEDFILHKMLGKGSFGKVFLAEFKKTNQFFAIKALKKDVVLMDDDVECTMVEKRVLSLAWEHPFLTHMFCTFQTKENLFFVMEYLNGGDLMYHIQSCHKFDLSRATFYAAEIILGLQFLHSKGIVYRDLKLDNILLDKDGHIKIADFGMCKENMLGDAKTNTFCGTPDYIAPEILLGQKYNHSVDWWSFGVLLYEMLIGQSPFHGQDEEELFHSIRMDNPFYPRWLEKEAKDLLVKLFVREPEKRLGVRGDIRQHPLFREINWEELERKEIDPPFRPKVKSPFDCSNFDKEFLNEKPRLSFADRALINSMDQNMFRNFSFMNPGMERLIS
Chain of Voltage-gated inwardly rectifying potassium channel KCNH2 (Q12809 whole entry): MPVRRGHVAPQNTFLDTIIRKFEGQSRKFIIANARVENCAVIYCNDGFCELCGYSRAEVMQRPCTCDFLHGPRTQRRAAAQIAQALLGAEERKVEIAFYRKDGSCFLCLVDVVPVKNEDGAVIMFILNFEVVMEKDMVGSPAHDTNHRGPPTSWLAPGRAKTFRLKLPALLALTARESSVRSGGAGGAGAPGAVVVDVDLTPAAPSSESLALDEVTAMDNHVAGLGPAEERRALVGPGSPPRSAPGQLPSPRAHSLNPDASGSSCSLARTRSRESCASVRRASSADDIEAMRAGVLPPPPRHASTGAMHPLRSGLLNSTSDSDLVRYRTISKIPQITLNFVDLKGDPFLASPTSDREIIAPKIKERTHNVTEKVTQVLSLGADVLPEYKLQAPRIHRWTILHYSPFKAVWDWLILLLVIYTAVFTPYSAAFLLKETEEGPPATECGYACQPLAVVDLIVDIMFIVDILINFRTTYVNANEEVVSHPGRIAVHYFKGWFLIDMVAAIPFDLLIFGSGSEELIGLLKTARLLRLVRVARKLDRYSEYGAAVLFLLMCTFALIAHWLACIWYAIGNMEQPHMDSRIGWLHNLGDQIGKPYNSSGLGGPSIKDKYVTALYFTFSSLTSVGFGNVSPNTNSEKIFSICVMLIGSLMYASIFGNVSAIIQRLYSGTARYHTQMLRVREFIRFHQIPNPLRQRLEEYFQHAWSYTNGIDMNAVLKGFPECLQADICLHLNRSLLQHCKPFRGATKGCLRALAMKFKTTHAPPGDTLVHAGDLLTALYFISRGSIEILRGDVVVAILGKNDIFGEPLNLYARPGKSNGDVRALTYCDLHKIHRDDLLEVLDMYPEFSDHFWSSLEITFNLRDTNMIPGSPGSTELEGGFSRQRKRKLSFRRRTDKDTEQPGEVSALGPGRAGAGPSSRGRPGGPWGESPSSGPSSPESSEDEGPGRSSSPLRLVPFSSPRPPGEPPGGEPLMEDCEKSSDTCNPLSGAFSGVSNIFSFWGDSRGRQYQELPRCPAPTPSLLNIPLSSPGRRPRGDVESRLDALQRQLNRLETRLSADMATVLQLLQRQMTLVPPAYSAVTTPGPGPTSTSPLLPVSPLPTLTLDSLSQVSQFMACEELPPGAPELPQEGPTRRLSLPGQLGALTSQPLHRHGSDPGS

Turning to `CC1CCC(C)n2ccc(=O)c3ccc(nc32)-n2c(=O)[nH]c3nccc(c32)O1` (centres undefined), the IC50 is less than 0.5 nM in [1]; 1.6 nM in [2]; 140 nM in series [3]; 790 nM in series [4]; 26 nM in series [5]. For the same compound, in series [6], the hepatocyte CLint is less than 4 µL/min/1e6 cells. In addition, the solubility in series [7] worked out at 123 µM (≈ 46.4 µg/mL). Besides, in series [8], the Papp is 4 ×10⁻⁶ cm/s. The efflux ratio in [9] turned out to be 8. For the same compound, in series [10], the bioavailability amounted to 20%. This compound also displayed a clearance in series [11] of 36 mL/min/kg. Besides, the Vd in series [12] turned out to be 2.7 L/kg. Moreover, the Selectivity ratio in [13] was 346; in series [14] it was 482; in series [15] it was 262; in series [16], 2850; in [17] it was more than 6250; in series [18], 4540. Also, the Selectivity ratio in [19] is more than 6250; in [20], 945; in [21] it was 4910; in series [22] it was 3050; in series [23], more than 6250; in [24], 1310. In addition, the Selectivity ratio in series [25] is 2200.

Regarding `CC1CCC(C)n2ccc(=O)c3cc(F)c(nc32)-n2c(=O)[nH]c3nccc(c32)O1` (centres undefined), the IC50 in series [1] was less than 0.5 nM; in series [2], less than 0.5 nM; in [3] it was 49 nM; in [4], 550 nM; in series [5], 17 nM. In addition, the hepatocyte CLint in series [6] is less than 4 µL/min/1e6 cells. Besides, the concentration in solution in series [7] (solubility) was 271 µM (≈ 107 µg/mL). Also, the Papp in series [8] amounted to 2.1 ×10⁻⁶ cm/s. Besides, in series [9], the efflux ratio amounted to 13. The same compound had a bioavailability in [10] of 40%. Moreover, in series [11], the clearance was determined as 41 mL/min/kg. Moreover, the Vd in series [12] was found to be 3.2 L/kg.

With `CC1CCN(C)c2c(F)cnc3cc(F)c(nc23)-n2c(=O)[nH]c3nccc(c32)O1` (centres undefined), the 50% inhibitory concentration (IC50) in series [1] is less than 0.5 nM; in series [2], 1.2 nM; in series [3], 56 nM; in series [4], 934 nM; in [5] it was 9.1 nM; in series [26], 13000 nM. Besides, the hepatocyte CLint in series [6] stood at 4 µL/min/1e6 cells. Besides, the Papp in [8] stood at 18 ×10⁻⁶ cm/s. In addition, the efflux ratio in series [9] worked out at 1. In series [10], this compound showed a bioavailability of 58%. For the same compound, the Selectivity ratio in series [13] is 166; in series [14], 62; in series [15], 709; in [16], more than 8330; in series [17], 36; in [18], 187. In addition, the Selectivity ratio turned out to be 754 in series [19]; 576 in series [20]; 649 in series [21]; 332 in series [22]; 858 in [23]; 174 in [24]. In addition, the Selectivity ratio in series [25] was 353.

For `CC1CCCOc2nc(ccc2C(N)=O)-n2c(=O)[nH]c3nccc(c32)O1` (centres undefined), the IC50 was found to be 0.9 nM in series [1]; 12 nM in [2]; 770 nM in [3]; 6500 nM in series [4]; 29 nM in series [5]. The solubility in series [7] worked out at 300 µM (≈ 107 µg/mL). Further, in series [8], the Papp turned out to be 3.9 ×10⁻⁶ cm/s. The efflux ratio in series [9] turned out to be 8. This compound came in with a bioavailability in [10] of 53%. In series [27], this compound had a half-life of 2.2 h. This compound displayed a clearance in series [11] of 19.6 mL/min/kg. The Selectivity ratio in series [13] is 38; in series [14] it was 43; in series [15], 147; in [16], 763; in series [17], 51; in series [18], 66. Further, the Selectivity ratio stood at 501 in series [19]; 322 in series [20]; 311 in series [21]; 133 in series [22]; 66 in series [23]; 21 in series [24]. In addition, the Selectivity ratio in [25] was 491.

Regarding `CC1CC(C)Oc2ccnc3[nH]c(=O)n(c23)-c2cccc(n2)O1` (centres undefined), the IC50 was found to be 2 nM in series [1]; 27 nM in series [2]; 820 nM in series [3]; 6000 nM in series [4]; 58 nM in series [5]. Also, in [6], the hepatocyte CLint is less than 4 µL/min/1e6 cells. Further, the concentration in solution in series [7] (solubility) came to 95 µM (≈ 29.7 µg/mL). In [8], the Papp stood at 32 ×10⁻⁶ cm/s. The efflux ratio in series [9] was 0.6. In [10], this compound gave a bioavailability of 50%. The clearance in [11] turned out to be 12 mL/min/kg. Also, the Vd in series [12] stood at 1.8 L/kg. In addition, the Selectivity ratio is 99 in series [13]; 43 in [14]; 188 in series [15]; more than 370 in series [16]; 40 in series [17]; more than 370 in series [18]. Besides, the Selectivity ratio in series [19] was more than 370; in series [20], 142; in series [21], more than 370; in series [22], more than 370; in [23], more than 370; in series [24] it was 78. The Selectivity ratio in [25] was more than 370.

The IC50 is the concentration that gives 50% inhibition. As a reminder, the solubility is the dissolved amount per volume that the medium holds. A low value points to a poorly soluble substance. As a reminder, the Papp is the rate of passage across a membrane or cell layer, normalised by area and donor concentration. The efflux ratio is a quotient of directional permeabilities that is used to spot active efflux. As usually defined, the bioavailability is the share of a dose that reaches the circulation, judged against a reference dose that is usually intravenous. Lower therefore signals little systemic uptake. Broadly, the clearance is a measure of how efficiently the substance is removed, as volume per time. A low value points to a low capacity for elimination. As usually defined, the half-life is how long it takes for the measured level to halve.
